From US11339372B2, “Serum-free medium inducing differentiation of umbilical cord mesenchymal stem cell into insulin-secretion-like cell and preparation method and use thereof” (SCLNOW BIOTECHNOLOGY CO., LTD, priority 2016, dated 2022) come the findings set out here.

This experiment relates to Human umbilical cord mesenchymal stem cells. The experiment can be described thus: Screening for the content of conophylline in the medium: differentiation induction, cell cluster morphology. In kind it is cell-based. On the procedure:
Media to be tested: 89 parts by volume of DMEM (High Glucose, with 4.5 g/L glucose), 5 parts by volume of serum replacement (SR), 2 parts by volume of B27 (50×), 1 part by volume of ITS, 1 part by volume of non-essential amino acids (NEAA), 1 part by volume of N-2 (100×), and heparin in a final concentration of 1 μg/ml, 10 mmol/L nicotinamide, and recombinant human basic fibroblast growth factor (b-FGF), epidermal growth factor (EGF), hepatocyte growth factor (HGF) and pentagastrin each in a final concentration of 10 ng/ml, and conophylline with a concentration of 1, 10, 50, 100, 200, and 300 ng/ml respectively.
Human umbilical cord mesenchymal stem cells were induced to differentiate through being cultured in the above media comprising different concentrations of conophylline respectively.

Turning to `CC[C@@]12CC(C(=O)OC)=C3Nc4cc5c(cc4[C@@]34CCN(C[C@H]3O[C@H]31)[C@@H]24)[C@@H]1[C@H](O5)[C@@H](O)[C@@]2(CC)CC(C(=O)OC)=C3Nc4c(cc(O)c(OC)c4OC)[C@@]34CCN1[C@@H]24` [conophylline], the “state of cell clusters” value reads like this: (medium with 1 ng/ml conophylline) “the maturity of the cell clusters was insufficient”; (medium with 10 ng/ml conophylline) “the maturity of the cell clusters was insufficient”; (medium with 50 ng/ml conophylline) “cell clusters were compact and grew gradually”; (medium with 100 ng/ml conophylline) “cell clusters were compact and grew gradually”; (medium with 200 ng/ml conophylline) “cell clusters were compact and grew gradually”; (medium with 300 ng/ml conophylline) “the differentiated cells had undergone an undirected differentiation”.
